Assay [1] has as its target Serotonin 4 (5-HT4) receptor (Sus scrofa, UniProt Q6Q253). Kind of assay: Compound was evaluated for its ability to inhibit the binding of 5-HT4 receptor radioligand [125I]SB 207710 to piglet hippocampal membrane. The class given is tissue-based, Hippocampus.
The target of assay [2] is 5-hydroxytryptamine receptor 4 (Cavia porcellus, UniProt O70528). Kind of assay: Ability to block 5-HT4 receptor mediated effect of 5-HT was assessed in the guinea-pig distal colon longitudinal muscle myenteric plexus preparation (LMMP).
Sequence of 5-hydroxytryptamine receptor 4 (O70528 whole entry): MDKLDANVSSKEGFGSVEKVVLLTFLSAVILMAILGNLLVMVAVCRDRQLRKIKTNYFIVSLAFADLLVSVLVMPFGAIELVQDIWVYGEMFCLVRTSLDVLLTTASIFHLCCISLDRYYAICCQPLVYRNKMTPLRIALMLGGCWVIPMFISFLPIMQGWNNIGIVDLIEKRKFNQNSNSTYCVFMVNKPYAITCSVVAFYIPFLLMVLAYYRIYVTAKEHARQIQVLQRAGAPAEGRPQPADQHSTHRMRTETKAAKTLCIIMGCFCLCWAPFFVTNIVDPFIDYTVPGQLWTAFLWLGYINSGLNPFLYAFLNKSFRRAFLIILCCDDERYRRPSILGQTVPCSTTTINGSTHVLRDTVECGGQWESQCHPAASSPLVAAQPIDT

What is called Ki is the equilibrium dissociation constant of an inhibitor or competing ligand from its target. High values mean lower affinity, low ones higher affinity. A word on the IC50: it is the concentration that gives 50% inhibition.

Sequence of Serotonin 4 (5-HT4) receptor (Q6Q253 whole entry): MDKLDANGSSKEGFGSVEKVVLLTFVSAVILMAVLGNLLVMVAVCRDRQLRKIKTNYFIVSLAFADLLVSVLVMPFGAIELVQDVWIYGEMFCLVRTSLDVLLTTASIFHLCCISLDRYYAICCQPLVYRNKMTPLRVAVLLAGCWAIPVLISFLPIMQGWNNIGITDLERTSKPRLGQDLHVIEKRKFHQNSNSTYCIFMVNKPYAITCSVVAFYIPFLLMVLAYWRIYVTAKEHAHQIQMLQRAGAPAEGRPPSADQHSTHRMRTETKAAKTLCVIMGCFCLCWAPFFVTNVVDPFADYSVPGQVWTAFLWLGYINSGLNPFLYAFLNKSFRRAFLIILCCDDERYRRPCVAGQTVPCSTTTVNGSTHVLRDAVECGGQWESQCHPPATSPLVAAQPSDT

The compound `CCCCN1CCC(COC(=O)c2c[nH]c3ccccc23)CC1` had an inhibition constant (Ki) in assay [1] of 2.51 nM. The same compound had a half-maximal inhibitory concentration (IC50) in assay [2] of 0.501 nM.

The compound `CCCCN1CCC(COC(=O)c2c3n(c4ccccc24)CCCCO3)CC1` had a Ki in assay [1] of 0.2 nM. Besides, in assay [2], the IC50 is 0.158 nM.

Compound `CCCCN1CCC(COC(=O)c2c3n(c4ccccc24)CCO3)CC1` gave an inhibition constant (Ki) in assay [1] of 0.0794 nM. Moreover, in assay [2], half-maximal inhibition (IC50) was put at 0.1 nM.

Compound `CCCCN1CCC(COC(=O)c2c3n(c4ccccc24)CCCO3)CC1` had a Ki in assay [1] of 0.0631 nM. The compound further gave an IC50 in assay [2] of 0.0251 nM.

`CCCCN1CCC(COC(=O)c2cc(Cl)c(N)c3c2OCCO3)CC1` had a Ki in assay [1] of 0.126 nM. Also, the IC50 in assay [2] was 0.0794 nM.

The values are drawn from ChEMBL document CHEMBL1151042, “5-HT4receptor antagonists : oxazolo, oxazino and oxazepino[3,2-a]indole derivatives” (Bioorg Med Chem Lett, 1994).
